Earlier results, collected in patent US20080302375A1 (priority 2003, published 2008).

Conditions: upon the smoking of a cigarette

CN1CCCC1c1cccnc1 (stereo not shown) [nicotine, 3-(1-methyl-2-pyrrolidinyl)-pyridine]
time for nicotine to reach the brain after inhalation: ten
